# Assay results: US6509002B1, “Diagnostic agent for diabetes” (priority 1997, dated 2003)
# How the values were obtained:
# [1] = ^13C breath test, oral administration, diabetic vs normal rats; assay type: in vivo, rat; conditions: for slope from 20 to 30 min after the administration / Δ^13C value (‰) at 30 min after the administration: 300 mg/kg orally, Example 6; for slope from 12 to 17 min after the administration: 90 mg/kg orally, Example 38
# Description: As test animals, male Sprague-Dawley strain (SD) neonatal rats were purchased from Nippon Charles River K. K. together with their lactating rats. They were bred at 23±2° C. under 55±10% humidity before use. Insulin secretion-deficient type diabetes was generated by administering streptozotocin (STZ) to neonatal rats (“Saibokogaku (Cell Engineering)”, Extra Issue, medical Experiment Manual Series, Strategy for Study of Diabetes, edited by Susumu Seino and Yoshikazu Oka, published by Shujunsha Co., Japan). STZ was subcutaneously administered to 2-day-old rats at a dose of 90 mg/kg. The STZ had been dissolved in a citrate buffer (pH 4.5) and was administered within 5 min after the dissolution. Two days after the administration, blood was collected by cardiac puncture, and the casual blood sugar level of each rat was measured with Terumo […] (blood sugar measurement set). […] However, their fasting blood sugar levels increase only slightly and remain at almost normal levels. According to the standards stipulated by the Japan Diabetes Society (1982), those individuals with a fasting blood sugar level (in venous whole blood) of […] or more are regarded as having diabetes (“[…] (Diabetes Test Manual)”, edited by Yukio […], published by Nanko-Do Co., Japan). Then, those rats with a fasting blood sugar level of less than 120 mg/dl (and with a casual blood sugar level of 250 mg/dl or more) which are not regarded as having diabetes in a fasting blood sugar level test were selected from the above-described rats with insulin secretion-deficient type diabetes and used as a model of light diabetes. Breath tests were carried out according to the method as described in (2)-1 or (2)-2 below on diabetic rats prepared in (1) above (8-10-week-old) and normal rats (8-10-week-old). Δ^13C (‰)=[(^13C t min-^13C 0 min)/^13C std]×1000 […] A blood sample was collected from the tail vein, and its sugar level was determined using Terumo […] (blood sugar measurement set). The exhalation was sucked with a stroke pump 18 (variable stroke pump VS-500; Shibata Scientific Technology) at a rate of 100-300 ml/min and introduced directly into a flow cell in ^13CO2 Analyzer EX-130S (Japan Spectroscopic Co., Ltd.) 20. […] Pure Drier ([…] Pure Inc.) was located between the rat holder and the stroke pump 18 to remove moisture in the exhalation (FIG. 1). […] The data output from the ^13CO2 analyzer 20 were incorporated into a personal computer 21 (Apple Power Macintosh 8500) after AD conversion. Using the data processing software Lab VIEW (National Instruments), data on ten points at every 100 msec were added up and averaged at intervals of 5 sec and then converted into ^13C atom %, Δ^13C (‰) and CO2 gas concentration (%), to thereby perform a continuous measurement ^13C breath test. […] Δ^13C (‰) was calculated by the formula described above.
# [2] = ^13C breath test, intravenous administration (femoral vein), diabetic vs normal rats; assay type: in vivo, rat
# Excerpt: As test animals, male Sprague-Dawley strain (SD) neonatal rats were purchased from Nippon Charles River K. K. together with their lactating rats. […] Insulin secretion-deficient type diabetes was generated by administering streptozotocin (STZ) to neonatal rats (“Saibokogaku (Cell Engineering)”, Extra Issue, medical Experiment Manual Series, Strategy for Study of Diabetes, edited by Susumu Seino and Yoshikazu Oka, published by Shujunsha Co., Japan). STZ was subcutaneously administered to 2-day-old rats at a dose of 90 mg/kg. […] Two days after the administration, blood was collected by cardiac puncture, and the casual blood sugar level of each rat was measured with Terumo […] (blood sugar measurement set). […] Breath tests were carried out according to the method as described in (2)-1 or (2)-2 below on diabetic rats prepared in (1) above (8-10-week-old) and normal rats (8-10-week-old). […] A blood sample was collected from the tail vein, and its sugar level was determined using Terumo […] (blood sugar measurement set). […] Fine Science Tools Inc.).
# [3] = diabetic rats, 50 mg/kg orally, Example 33
# [4] = normal rats, 50 mg/kg orally, Example 33
# [5] = diabetic rats, 45 mg/kg orally, Example 26
# [6] = normal rats, 45 mg/kg orally, Example 26
# [7] = diabetic rats, 50 mg/kg from the femoral vein, Example 16
# [8] = normal rats, 50 mg/kg from the femoral vein, Example 16
# [9] = diabetic rats, 10 mg/kg from the femoral vein, Example 15
# [10] = normal rats, 10 mg/kg from the femoral vein, Example 15
# [11] = diabetic rats, 60 mg/kg orally, Example 17
# [12] = normal rats, 60 mg/kg orally, Example 17
# [13] = diabetic rats, 20 mg/kg from the femoral vein, Example 11
# [14] = normal rats, 20 mg/kg from the femoral vein, Example 11
# [15] = diabetic rats, 50 mg/kg from the femoral vein, Example 35
# [16] = normal rats, 50 mg/kg from the femoral vein, Example 35
# [17] = diabetic rats, 50 mg/kg from the femoral vein, Example 27
# [18] = normal rats, 50 mg/kg from the femoral vein, Example 27
# [19] = diabetic rats, 40 mg/kg from the femoral vein, Example 36
# [20] = normal rats, 40 mg/kg from the femoral vein, Example 36
# [21] = diabetic rats, 30 mg/kg orally, Example 7
# [22] = normal rats, 30 mg/kg orally, Example 7
molecule,measurement,setting,value
"CCCCCCC[13C](=O)OCC(CO[13C](=O)CCCCCCC)O[13C](=O)CCCCCCC [1,1,1-^13C-trioctanoin]",time course of Δ^13C values (‰),[1]; [3],continued increasing up to 30 min
same,Δ^13C value (‰) at 20 min after the administration,[1]; [3],150.72±22.48 ‰
same,time course of Δ^13C values (‰),[1]; [4],continued increasing up to 30 min
same,Δ^13C value (‰) at 20 min after the administration,[1]; [4],110.16±16.08 ‰
NC(CSSCC(N)[13C](=O)O)[13C](=O)O (stereo not drawn) [1-^13C-cystine],slope from 5 to 10 min after the administration,[1]; [5],46.82±2.94 ‰/5 min
same,time course of Δ^13C values (‰),[1]; [5],continued increasing up to 30 min
same,Δ^13C value (‰) at 10 min after the administration,[1]; [5],69.15±6.44 ‰
same,slope from 5 to 10 min after the administration,[1]; [6],30.86±10.06 ‰/5 min
same,time course of Δ^13C values (‰),[1]; [6],continued increasing up to 30 min
same,Δ^13C value (‰) at 10 min after the administration,[1]; [6],45.26±8.68 ‰
N[C@@H](CO)[13C](=O)O [1-^13C-serine],slope from 1 to 4 min after the administration,[2]; [7],158.13±41.24 ‰/3 min
same,time course of Δ^13C values (‰),[2]; [7],"increased sharply up to about 8 min after the administration, but thereafter decreased gradually up to 20 min"
same,Δ^13C value (‰) at 10 min after the administration,[2]; [7],228.08±43.45 ‰
same,slope from 1 to 4 min after the administration,[2]; [8],84.17±11.38 ‰/3 min
same,time course of Δ^13C values (‰),[2]; [8],"increased up to about 8 min after the administration of 1-^13C-serine, and thereafter remained at an almost constant level"
same,Δ^13C value (‰) at 10 min after the administration,[2]; [8],127.79±10.69 ‰
N[C@@H](Cc1c[nH]c2ccccc12)[13C](=O)O [1-^13C-tryptophan],slope from 10 to 15 min after the administration,[2]; [9],4.46±0.49 ‰/5 min
same,time course of Δ^13C values (‰),[2]; [9],continued increasing up to 20 min
same,Δ^13C value (‰) at 20 min after the administration,[2]; [9],19.42±4.37 ‰
same,slope from 10 to 15 min after the administration,[2]; [10],1.20±0.93 ‰/5 min
same,time course of Δ^13C values (‰),[2]; [10],continued increasing up to 20 min
same,Δ^13C value (‰) at 20 min after the administration,[2]; [10],8.10±0.77 ‰
N[C@@H](C[13c]1ccc(O)cc1)C(=O)O [1-^13C-tyrosine],slope from 5 to 10 min after the administration,[1]; [11],79.62±19.90 ‰/5 min
same,time course of Δ^13C values (‰),[1]; [11],"increased up to about 20 min after the administration, but thereafter decreased gradually up to 30 min"
same,Δ^13C value (‰) at 20 min after the administration,[1]; [11],205.30±51.43 ‰
same,slope from 5 to 10 min after the administration,[1]; [12],27.52±17.10 ‰/5 min
same,time course of Δ^13C values (‰),[1]; [12],continued increasing up to 30 min
same,Δ^13C value (‰) at 20 min after the administration,[1]; [12],73.96±35.10 ‰
CC(C)[C@H](N)[13C](=O)O [1-^13C-valine],slope from 2 to 4 min after the administration,[2]; [13],38.55±3.15 ‰/2 min
same,time course of Δ^13C values (‰),[2]; [13],"sharply increased up to about 6 min after the administration of 1-^13C-valine, and thereafter increased gradually up to 20 min"
same,Δ^13C value (‰) at 5 min after the administration,[2]; [13],73.54±7.30 ‰
same,slope from 2 to 4 min after the administration,[2]; [14],24.17±2.32 ‰/2 min
same,time course of Δ^13C values (‰),[2]; [14],"sharply increased up to about 6 min after the administration of 1-^13C-valine, and thereafter increased gradually up to 20 min"
same,Δ^13C value (‰) at 5 min after the administration,[2]; [14],45.99±5.62 ‰
O=[13CH][C@H](O)[C@@H](O)[C@H](O)CO [1-^13C-xylose],slope from 20 to 30 min after the administration,[1]; diabetic rats,12.80±2.18 ‰/10 min
same,Δ^13C value (‰) at 30 min after the administration,[1]; diabetic rats,23.40±7.60 ‰
same,slope from 20 to 30 min after the administration,[1]; normal rats,4.61±1.40 ‰/10 min
same,Δ^13C value (‰) at 30 min after the administration,[1]; normal rats,6.82±3.02 ‰
O=[13C](CO)[C@@H](O)[C@H](O)[C@H](O)CO [2-^13C-fructose],Δ^13C value (‰) at 20 min after the administration,"[2]; rat, in vivo",94.68 ‰
same,slope from 2 to 6 min after the administration,"[2]; rat, in vivo, 100 mg/kg",21.4±1.84 ‰/4 min
same,Δ^13C value (‰) at 20 min after the administration,"[2]; rat, in vivo, 100 mg/kg",58.75±2.73 ‰
O=C[13C@H](O)[C@@H](O)[C@@H](O)[C@H](O)CO [2-^13C-galactose],time course of Δ^13C values (‰),"[2]; rat, in vivo, 100 mg/kg",continued increasing up to 20 min
OC[13CH](O)CO [2-^13C-glycerol],slope from 2 to 7 min after the administration,[2]; [15],62.72±3.22 ‰/5 min
same,time course of Δ^13C values (‰),[2]; [15],"increased sharply up to about 8 min after the administration, and thereafter increased gradually up to 20 min"
same,Δ^13C value (‰) at 20 min after the administration,[2]; [15],112.44±5.12 ‰
same,slope from 2 to 7 min after the administration,[2]; [16],16.99±1.61 ‰/5 min
same,time course of Δ^13C values (‰),[2]; [16],"continued increasing gradually up to 20 min after the administration of 2-^13C-glycerol, and thereafter remained at an almost constant level"
same,Δ^13C value (‰) at 20 min after the administration,[2]; [16],54.77±4.23 ‰
[13CH3]C(O)C(=O)[O-].[Na+] (stereo not drawn) [3-^13C-sodium lactate],^13C value (‰) at 10 min after the administration,[2]; [17],202.08±6.05 ‰
same,slope from 2 to 4 min after the administration,[2]; [17],96.83±17.69 ‰/2 min
same,time course of Δ^13C values (‰),[2]; [17],"increased sharply up to about 7 min after the administration, but thereafter decreased gradually up to 20 min"
same,^13C value (‰) at 10 min after the administration,[2]; [18],130.30±11.47 ‰
same,slope from 2 to 4 min after the administration,[2]; [18],60.69±6.80 ‰/2 min
same,time course of Δ^13C values (‰),[2]; [18],"increased sharply up to about 5 min after the administration of 3-^13C-sodium lactate, and thereafter increased gradually up to 20 min"
"Cc1c(N([13CH3])[13CH3])c(=O)n(-c2ccccc2)n1C [N,N-dimethyl-^13C-aminopyrin]",slope from 1 to 2 min after the administration,[2]; [19],95.68±16.33 ‰/min
same,time course of Δ^13C values (‰),[2]; [19],"increased sharply up to about 5 min after the administration, and thereafter remained at an almost constant level up to 20 min"
same,Δ^13C value (‰) at 20 min after the administration,[2]; [19],193.62±22.21 ‰
same,slope from 1 to 2 min after the administration,[2]; [20],41.16±8.89 ‰/min
same,time course of Δ^13C values (‰),[2]; [20],"increased sharply up to about 3 min after the administration of N,N-dimethyl-^13C-aminopyrin, and thereafter increased gradually up to 20 min"
same,Δ^13C value (‰) at 20 min after the administration,[2]; [20],92.2±12.64 ‰
U-^13C-starch,^13C value (‰) at 30 min after the administration,[1]; [21],144.50±23.27 ‰
same,time course of Δ^13C values (‰),[1]; [21],continued increasing up to 20 min
same,^13C value (‰) at 30 min after the administration,[1]; [22],213.89±4.66 ‰
same,time course of Δ^13C values (‰),[1]; [22],continued increasing up to 20 min
ethoxy-^13C-methacetin,slope from 12 to 17 min after the administration,[1]; diabetic rats,−8.40±7.67 ‰/5 min
same,slope from 12 to 17 min after the administration,[1]; normal rats,16.05±7.71 ‰/5 min
